Source: patent US20210000783A1, “USE OF EXTRACT OF VEGETATION WATERS FOR TREATING DAMAGE TO THE CARDIOVASCULAR SYSTEM” (FATTORIA LA VIALLA DI GIANNI, ANTONIO E BANDINO LO FRANCO - …, priority 2017, published 2021)

Test system: zebrafish (Danio rerio) embryos
Experiment: Heart rate of zebrafish embryos with doxorubicin-induced cardiotoxicity
Assay type: in vivo
Conditions: doxorubicin alone 3 μg/ml
Experimental: (§1) The embryos were treated with the polyphenol concentrate of the present invention (sample A009), at the dilutions 1:100 and 1:500, alone or in association with Doxorubicin (3 μg/mL). A pre-treatment was performed with A009, followed by administration of Doxorubicin and A009+Doxorubicin co-treatment. NT=not-treated cells. ^∘∘∘=p<0.0001 with respect to not-treated embryos; ***=p<0.001 with respect to embryos treated with doxorubicin alone;
as §1, with “alone.” for “alone;”
To evaluate the cardioprotective effect of the polyphenol concentrate of the invention, the zebrafish was used in vivo as the animal model to study. In particular the experiments were performed on zebrafish (Danio rerio) embryos incubated for 24, 48 and 72 hours after fertilization. […]

COc1cccc2c1C(=O)c1c(O)c3c(c(O)c1C2=O)C[C@@](O)(C(=O)CO)C[C@@H]3O[C@H]1C[C@H](N)[C@H](O)[C@H](C)O1 [doxorubicin]
heart rate of zebrafish embryos (48 hours, FIG. 2): significantly reduces their heart rate
heart rate of zebrafish embryos (72 hours, FIG. 3): significantly reduces their heart rate
